In patent publication US4485113A (priority 1979, dated 1984):

Test system: rat
Assay: not given
Conditions: in vivo, po

Compound | A.O. Rat. LD50
CNC(=O)ON=C(C)SC [Compound 1] | 49 mg/kg
CNC(=O)ON=C(C)SC(C)C [Compound 3] | 8 mg/kg

Test system: not listed separately
Assay: in vivo
Conditions: rat, po

Compound | LD50
CSC(C)=NOC(=O)N(C)SC(C)(C)C#N [X, 1-Methylthioacetaldehyde O-[N-methyl-N-(2-cyano-2-propanesulfenyl)carbamoyl]oxime] | 127 mg/kg
CN(SC(C)(C)CCl)C(=O)ON=C1SC(C)(C)C(=O)N1C [XIII, 3,5,5-Trimethyl-2-[[O--[N--methyl-N--(2-chloromethyl-2-propanesulfenyl)carbamoyl]oximino]]-4-thiazolidinone] | 343 mg/kg
CN(SC(C)(C#N)CCl)C(=O)ON=C1SC(C)(C)C(=O)N1C (centres unmarked) [XIX, 3,5,5-Trimethyl-2-[[O--[N--methyl-N--(1-chloro-2-cyano-2-propanesulfenyl)carbamoyl]oximino]]-4-thiazolidinone] | 320 mg/kg
CC(=NOC(=O)N(C)SC(C)(C)C#N)SC(C)C [XXIII, 1-Isopropylthioacetaldehyde O--[N--methyl-N--(2-cyano-2-propanesulfenyl)carbamoyl]oxime] | 20 mg/kg
CC(=NOC(=O)N(C)SC(C)(C)C#N)SCCC#N [XXIV, 1-(2-Cyanoethylthio)acetaldehyde O--[N--methyl-N--(2-cyano-2-propanesulfenyl)carbamoyl]oxime] | 14.1 mg/kg
CC(=NOC(=O)N(C)SSC(C)(C)C#N)SC(C)C [XXIX, 1-Isopropylthioacetaldehyde O--[N-- methyl-N--(2-cyano-2-propanethiosulfenyl)carbamoyl]oxime] | 18 mg/kg
CN(SC(C)(C)C#N)C(=O)ON=C1CSCCS1 [XXVI, 2-[[O--[N--methyl-N--(2-cyano-2-propanesulfenyl)carbamoyl]oximino]]-1,4-dithiane] | 40 mg/kg
CC(=NOC(=O)N(C)SSC(C)(C)C#N)SCCC#N [XXVIII, 1-(2-Cyanoethylthio)acetaldehyde O--[N--methyl-N--(2-cyano-2-propanethiosulfenyl)carbamoyl]oxime] | 28 mg/kg
CSC(C)=NOC(=O)N(C)SSC(C)(C)C#N [XXVII] | 127 mg/kg
CN(SSC(C)(C)C#N)C(=O)ON=CC(C)(C)C#N [XXXII, 2-Cyano-2-methylpropionaldehyde O--[N--methyl-N--(2-cyano-2-propanethiosulfenyl)carbamoyl]oxime] | 14 mg/kg
CC1OCSC1=NOC(=O)N(C)SSC(C)(C)C#N (centres unmarked) [XXXIV, 5-Methyl-4-[[O--[N--methyl-N--(2-cyano-2-propanethiosulfenyl)carbamoyl]oximino]]-1,3-oxathiolane] | 14 mg/kg
CN(SSC(C)(C)C#N)C(=O)ON=C1CSCCS1 [XXXV, 2-[[O--[N--methyl-N--(2-cyano-2-propanethiosulfenyl)carbamoyl]oximino]]-1,4-dithiane] | 32 mg/kg
